ChEMBL document CHEMBL1201862, “PubChem BioAssay data set” (2004)
Activity calls are given as the source filed them.

Columns and labels:
[1] = biological target: T1, Short transient receptor potential channel 4 (Mus musculus, UniProt Q9QUQ5); experiment: mouse TRPC4 channel inhibitors, dose response, cell-based, HEK293 TRPC4/mu-opioid, Fluo-4 calcium (AID 434942); type: functional;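 also: potency of inhibitors blocking the TRPC4 calcium response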
T1 sequence (Q9QUQ5 whole entry): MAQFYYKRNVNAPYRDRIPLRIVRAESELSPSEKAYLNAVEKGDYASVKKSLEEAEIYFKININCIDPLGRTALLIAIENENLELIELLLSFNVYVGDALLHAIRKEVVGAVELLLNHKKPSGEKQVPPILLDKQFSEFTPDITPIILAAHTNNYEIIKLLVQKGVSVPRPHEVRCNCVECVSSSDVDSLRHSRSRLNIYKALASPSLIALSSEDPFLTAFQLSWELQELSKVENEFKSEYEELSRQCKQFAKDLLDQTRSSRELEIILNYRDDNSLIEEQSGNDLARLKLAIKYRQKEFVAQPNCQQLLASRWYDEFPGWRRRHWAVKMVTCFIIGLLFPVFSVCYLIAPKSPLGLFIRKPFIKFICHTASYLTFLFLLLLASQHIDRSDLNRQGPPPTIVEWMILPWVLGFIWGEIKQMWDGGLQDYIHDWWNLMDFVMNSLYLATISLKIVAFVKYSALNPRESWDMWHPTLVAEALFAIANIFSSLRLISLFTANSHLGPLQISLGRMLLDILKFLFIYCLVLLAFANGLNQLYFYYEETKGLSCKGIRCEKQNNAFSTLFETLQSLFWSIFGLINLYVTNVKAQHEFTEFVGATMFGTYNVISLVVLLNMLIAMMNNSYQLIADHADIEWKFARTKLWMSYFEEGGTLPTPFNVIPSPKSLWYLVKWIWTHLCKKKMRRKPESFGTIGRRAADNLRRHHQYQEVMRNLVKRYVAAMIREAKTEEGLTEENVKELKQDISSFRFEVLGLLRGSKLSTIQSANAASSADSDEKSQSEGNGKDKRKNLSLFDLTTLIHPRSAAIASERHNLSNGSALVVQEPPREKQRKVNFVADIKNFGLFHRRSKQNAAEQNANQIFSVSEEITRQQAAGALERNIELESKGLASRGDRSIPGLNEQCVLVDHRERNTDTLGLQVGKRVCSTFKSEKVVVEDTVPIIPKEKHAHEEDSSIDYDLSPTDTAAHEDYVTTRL

[2] = biological target: T1, Short transient receptor potential channel 4; experiment: mouse TRPC4 channel activators, dose response, cell-based, HEK293 TRPC4/mu-opioid, Fluo-4 calcium (AID 434937); type: functional
[3] = ARNT/TACC3 interaction disruptors, potency, confirmation, biochemical, AlphaScreen, cherry-picked samples (AID 651703); type: functional, Homo sapiens;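 also: His-tagged ARNT PAS-B domain paired with GST-TACC3 E629A dimer coactivator fragment; potency of inhibitors that break up the complex and lower AlphaScreen signal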
Beta-lactamase [4] = biological target: Beta-lactamase (Salmonella choleraesuis (strain SC-B67), UniProt Q5J463); experiment: Epi-absorbance-based counterscreen for selective VIM-2 inhibitors: dose response biochemical high throughput screening assay to identify inhibitors of TEM-1 serine-beta-lactamase.
Beta-lactamase [5] = biological target: T2, Beta-lactamase (Pseudomonas aeruginosa, UniProt Q79MP6); experiment: IMP-1 metallo-beta-lactamase inhibitors, dose response, selectivity assay for VIM-2 inhibitor project, biochemical, epi-absorbance (AID 1920)
Beta-lactamase [6] = biological target: T2, Beta-lactamase; experiment: […] counterscreen for selective VIM-2 inhibitors: dose response biochemical high throughput screening assay to identify inhibitors of IMP-1 metallo-beta-lactamase.
[7] = inhibitors of firefly luciferase expression or activity, dose response, H4 neuroglioma cells, luminescence (AID 1990); type: functional, cell-based
[8] = tested on: Streptococcus sp. 'group A'; experiment: growth inhibition of control SK(-) GAS strain, dose response, counter-screen for streptokinase expression inhibitor project, luminescence, kanamycin, BacTiterGlo, confirmation (AID 1900); type: functional, organism-based
[9] = Luminescence Cell-Based Dose Response HTS to Identify Inhibitors of 5'UTR Stem-Loop Driven Prion Protein mRNA Translation in H4 Neuroglioblastoma Cells. [Related pubchem assays: 1827 (Project Summary), 1813 (Primary HTS)]; type: functional
[10] = inhibitors of SNCA 5'UTR-driven reporter translation, confirmation, H4 neuroglioma cells, luminescence (AID 1988); type: functional, cell-based
Streptokinase A = biological target: T3, Streptokinase A (Streptococcus pyogenes serotype M1, UniProt P10520); experiment: S. pyogenes streptokinase expression inhibitors, potency, dose response, plasminogen activation absorbance, OD405 (AID 1914); type: functional, Streptococcus pyogenes M1 GAS;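 also: secreted streptokinase activity via plasminogen activation per viability signal from cell pellet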
T3 sequence (P10520 whole entry): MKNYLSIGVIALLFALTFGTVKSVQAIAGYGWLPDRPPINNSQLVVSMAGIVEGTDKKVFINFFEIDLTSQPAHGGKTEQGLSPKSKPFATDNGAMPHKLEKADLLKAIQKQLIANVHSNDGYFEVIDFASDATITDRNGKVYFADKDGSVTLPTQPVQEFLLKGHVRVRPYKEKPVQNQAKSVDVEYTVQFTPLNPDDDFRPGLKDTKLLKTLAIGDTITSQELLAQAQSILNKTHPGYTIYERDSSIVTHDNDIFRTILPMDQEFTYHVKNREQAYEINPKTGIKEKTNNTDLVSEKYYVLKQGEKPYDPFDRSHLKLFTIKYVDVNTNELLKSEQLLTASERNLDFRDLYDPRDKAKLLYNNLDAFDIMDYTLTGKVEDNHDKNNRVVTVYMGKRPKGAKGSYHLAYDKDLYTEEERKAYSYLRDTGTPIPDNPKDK

Streptococcus = experiment: Group A Streptococcus viability loss, dose response, counter-screen for streptokinase expression inhibitor project, luminescence, BacTiterGlo (AID 1915); type: functional, organism-based;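 also: potency for reduction of bacterial viability or growth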
INS1 = experiment: beta cell apoptosis inhibitors, cytokine rescue, dose response, luminescence, retest (AID 449756); type: functional, cell-based; conditions: Rattus norvegicus;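 also: cell death triggered by IL-1 beta plus TNF-alpha plus IFN-gamma mixture; protective hits raise ATP signal compared with cytokine alone wells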
[11] = Shn3 3'UTR reporter inhibitors, dose response, cell-based, Clone20 osteoblasts, firefly luciferase, cherry-picked (AID 624132); type: functional;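 also: firefly luciferase luminescence from reporter carrying the Shn3 3'UTR in osteoblasts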
[12] = HepG2 cell cytotoxicity, dose response, cytotoxicity control for Shn3 inhibitor project, CellTiter-Glo, cherry-picked (AID 624134); type: functional, cell-based
[13] = control 3'UTR Renilla luciferase suppression, dose response, counter-screen for Shn3 inhibitor project, cell-based, Clone20-Shn3RL, cherry-picked (AID 624133); type: functional
Fatty acid synthase [14] = biological target: T4, Fatty acid synthase (Homo sapiens, UniProt P49327); experiment: FAS thioesterase domain inhibitors, dose response, biochemical, endpoint fluorescence intensity, uHTS hits (AID 624327); type: functional;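 also: fluorescence from hydrolysis of an O-methyl fluorescein acyl ester substrate by the enzyme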
[15] = biological target: ATP-binding cassette sub-family B member 6 (Homo sapiens, UniProt Q9NP58); experiment: ABCB6 transporter inhibitors, porphyrin accumulation, dose response, flow cytometry, K562-ABCB6 cells, cherry pick 02 (AID 624487); type: functional; conditions: read-out: EC50_MICROM
Fatty acid synthase [16] = biological target: T4, Fatty acid synthase; experiment: FAS thioesterase domain inhibitors, dose response, biochemical, kinetic fluorescence intensity (AID 624326); type: functional;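 also: rate of fluorescence rise from hydrolysis of a fluorogenic O-methyl fluorescein ester substrate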
Paired box protein Pax-8 = Paired box protein Pax-8 (Homo sapiens, UniProt Q06710); experiment: inhibitors of PAX8-driven TPO luciferase reporter, dose response, RMG-I cells, cherry-pick (AID 687027); type: functional, cell-based;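 also: luciferase reporter driven by Pax8 target thyroperoxidase promoter measured by SteadyGlo luminescence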
[17] = non-specific cell cytotoxicity, dose response, cytotoxicity control for PAX8 inhibitor project, plate reader, dry powder samples (AID 743021); type: functional, cell-based
Mu-type opioid receptor = Mu-type opioid receptor (Homo sapiens, UniProt P35372); type: functional, cell-based;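 also: U2OS cells with beta-arrestin recruitment to OPRM1 by beta-gal complementation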
[18] = biological target: 5-hydroxytryptamine receptor 2A (Mus musculus, UniProt P35363); type: functional, cell-based;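 also: CHO-K1 cells with tagged receptor and beta-arrestin; agonist potency measured as compound-induced activation of the receptor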
[19] = biological target: Heat shock protein HSP 90-alpha (Homo sapiens, UniProt P07900); type: functional, organism-based
[20] = Fluorescence-based cell-based high throughput dose response assay for inhibitors of the interaction of nucleotide-binding oligomerization domain containing 2 (NOD2) and the receptor-interacting serine-threonine kinase 2 (RIPK2).; type: functional; conditions: Homo sapiens
Beta Lactamase = Beta Lactamase (Pseudomonas aeruginosa, UniProt Q932Y6); experiment: beta-lactamase reporter inhibitor potency, dose response, artefact control for NOD2-RIPK2 interaction inhibitor project, BLA reporter cells, FRET fluorescence (AID 651552); type: functional, cell-based
[21] = HeLa cell cytotoxicity, dose response, cytotoxicity control for MgcRacGAP inhibitor project (AID 624300); type: functional
[22] = biological target: T5, Rac GTPase-activating protein 1 (Homo sapiens, UniProt Q9H0H5); experiment: MgcRacGAP GTPase-activating activity inhibitors, confirmation, biochemical, ADP Hunter fluorescence, primary and confirmatory (AID 624330); type: functional
T5 sequence (Q9H0H5 whole entry): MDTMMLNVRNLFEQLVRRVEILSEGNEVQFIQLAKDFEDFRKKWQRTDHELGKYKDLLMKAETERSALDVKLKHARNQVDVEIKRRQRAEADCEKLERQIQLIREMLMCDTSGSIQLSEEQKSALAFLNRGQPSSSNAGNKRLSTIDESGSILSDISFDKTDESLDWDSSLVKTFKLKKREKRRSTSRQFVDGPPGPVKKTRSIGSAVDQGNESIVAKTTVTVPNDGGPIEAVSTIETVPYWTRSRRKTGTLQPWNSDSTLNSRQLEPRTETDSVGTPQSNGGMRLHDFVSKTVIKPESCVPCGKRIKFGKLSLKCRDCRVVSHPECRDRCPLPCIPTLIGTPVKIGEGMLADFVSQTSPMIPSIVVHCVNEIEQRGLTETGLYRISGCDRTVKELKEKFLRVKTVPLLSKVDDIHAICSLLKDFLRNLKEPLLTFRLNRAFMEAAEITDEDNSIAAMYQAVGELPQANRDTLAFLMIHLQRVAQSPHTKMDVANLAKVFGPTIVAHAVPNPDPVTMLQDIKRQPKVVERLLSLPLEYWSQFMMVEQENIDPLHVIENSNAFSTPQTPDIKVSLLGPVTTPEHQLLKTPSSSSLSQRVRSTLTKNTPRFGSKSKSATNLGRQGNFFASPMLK

Estrogen receptor = Estrogen receptor (Homo sapiens, UniProt P03372);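 also: potency for inhibiting coactivator peptide recruitment to the receptor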
Estrogen receptor beta [23] = biological target: T6, Estrogen receptor beta (Homo sapiens, UniProt Q92731);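 also: recombinant ER-beta bound to coactivator SRC1 peptide in presence of estradiol agonist; inhibitors block coactivator peptide binding and lower the FRET signal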
Estrogen receptor beta [24] = biological target: T6, Estrogen receptor beta; experiment: ERβ–SRC-3 coactivator interaction inhibitors, confirmation, orthogonal assay, biochemical, ELISA, streptavidin-HRP readout (AID 1060)
[25] = biological target: T7, Small ubiquitin-related modifier 1 (Homo sapiens, UniProt P63165); experiment: inhibitors of SUMO1 peptide binding, dose response, biochemical, fluorescence polarization, uHTS hits (AID 624382); type: functional; conditions: read-out: IC50_Mean
[26] = biological target: T7, Small ubiquitin-related modifier 1; experiment: inhibitors of SUMO1 partner interactions, dose response, biochemical, FRET (AID 624383); type: functional; conditions: read-out: IC50_Mean
HEK293 = experiment: inhibitors of LMP1-driven NF-kB reporter, dose response, cell-based, HEK293, luciferase, cherry-pick (AID 588343); type: functional; conditions: Homo sapiens
Interleukin-8 [27] = biological target: T8, Interleukin-8 (Homo sapiens, UniProt P10145); experiment: Dose Response confirmation of uHTS small molecule hits for cystic fibrosis induced NFkb Inhibitors in a TNFa-induced IL8 counterscreen.; type: functional; conditions: read-out: IC50_Mean
Interleukin-8 [28] = biological target: T8, Interleukin-8; experiment: Dose Response confirmation of uHTS small molecule hits for cystic fibrosis induced NFkb Inhibitors in a PAF-induced IL8 counterscreen.; type: functional; conditions: read-out: IC50_Mean
[29] = miR-122 activators in hepatoma reporter cells, dose response, cell-based, Huh7 psiCHECK-miR122, Renilla luciferase, cherry-picked (AID 651956); type: functional;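 also: huh7 hepatoma cells stably carrying a psiCHECK-2 miR-122 sensor plasmid; renilla luciferase signal reporting endogenous miR-122 activity after 48 h compound exposure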
[30] = biological target: T9, Methionyl-tRNA synthetase, putative (Trypanosoma brucei brucei, UniProt Q38C91); type: functional, Trypanosoma brucei brucei strain 927/4 GUTat10.1
[31] = Counterscreen for inhibitors of Trypanosoma brucei methionyl tRNA synthetase (MetRS): Luminescence-based cell-based high throughput dose response assay to identify compounds that are cytotoxic to Jurkat human T lymphocyte cells.; type: functional
[32] = biological target: T9, Methionyl-tRNA synthetase, putative; type: functional, Trypanosoma brucei brucei strain 927/4 GUTat10.1; remark: listed apart in the source

Paired box protein Pax-8, sequence (Q06710 whole entry): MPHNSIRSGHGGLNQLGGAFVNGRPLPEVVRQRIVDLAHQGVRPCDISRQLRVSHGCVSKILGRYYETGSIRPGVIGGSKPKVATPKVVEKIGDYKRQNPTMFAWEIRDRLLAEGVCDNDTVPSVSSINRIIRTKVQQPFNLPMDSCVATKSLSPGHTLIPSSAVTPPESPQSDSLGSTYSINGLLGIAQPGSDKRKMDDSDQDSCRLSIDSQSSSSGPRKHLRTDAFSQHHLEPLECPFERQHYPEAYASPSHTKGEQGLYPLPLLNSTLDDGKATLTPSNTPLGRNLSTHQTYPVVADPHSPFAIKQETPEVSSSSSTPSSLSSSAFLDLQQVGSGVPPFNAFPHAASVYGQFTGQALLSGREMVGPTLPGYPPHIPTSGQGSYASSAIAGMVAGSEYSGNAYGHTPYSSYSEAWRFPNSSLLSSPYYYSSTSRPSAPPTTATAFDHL
T7 sequence (P63165 whole entry): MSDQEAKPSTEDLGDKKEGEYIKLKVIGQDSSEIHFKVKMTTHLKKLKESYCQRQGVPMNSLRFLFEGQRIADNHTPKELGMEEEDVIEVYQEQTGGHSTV
T4 sequence (P49327 whole entry, the tested form may be a part): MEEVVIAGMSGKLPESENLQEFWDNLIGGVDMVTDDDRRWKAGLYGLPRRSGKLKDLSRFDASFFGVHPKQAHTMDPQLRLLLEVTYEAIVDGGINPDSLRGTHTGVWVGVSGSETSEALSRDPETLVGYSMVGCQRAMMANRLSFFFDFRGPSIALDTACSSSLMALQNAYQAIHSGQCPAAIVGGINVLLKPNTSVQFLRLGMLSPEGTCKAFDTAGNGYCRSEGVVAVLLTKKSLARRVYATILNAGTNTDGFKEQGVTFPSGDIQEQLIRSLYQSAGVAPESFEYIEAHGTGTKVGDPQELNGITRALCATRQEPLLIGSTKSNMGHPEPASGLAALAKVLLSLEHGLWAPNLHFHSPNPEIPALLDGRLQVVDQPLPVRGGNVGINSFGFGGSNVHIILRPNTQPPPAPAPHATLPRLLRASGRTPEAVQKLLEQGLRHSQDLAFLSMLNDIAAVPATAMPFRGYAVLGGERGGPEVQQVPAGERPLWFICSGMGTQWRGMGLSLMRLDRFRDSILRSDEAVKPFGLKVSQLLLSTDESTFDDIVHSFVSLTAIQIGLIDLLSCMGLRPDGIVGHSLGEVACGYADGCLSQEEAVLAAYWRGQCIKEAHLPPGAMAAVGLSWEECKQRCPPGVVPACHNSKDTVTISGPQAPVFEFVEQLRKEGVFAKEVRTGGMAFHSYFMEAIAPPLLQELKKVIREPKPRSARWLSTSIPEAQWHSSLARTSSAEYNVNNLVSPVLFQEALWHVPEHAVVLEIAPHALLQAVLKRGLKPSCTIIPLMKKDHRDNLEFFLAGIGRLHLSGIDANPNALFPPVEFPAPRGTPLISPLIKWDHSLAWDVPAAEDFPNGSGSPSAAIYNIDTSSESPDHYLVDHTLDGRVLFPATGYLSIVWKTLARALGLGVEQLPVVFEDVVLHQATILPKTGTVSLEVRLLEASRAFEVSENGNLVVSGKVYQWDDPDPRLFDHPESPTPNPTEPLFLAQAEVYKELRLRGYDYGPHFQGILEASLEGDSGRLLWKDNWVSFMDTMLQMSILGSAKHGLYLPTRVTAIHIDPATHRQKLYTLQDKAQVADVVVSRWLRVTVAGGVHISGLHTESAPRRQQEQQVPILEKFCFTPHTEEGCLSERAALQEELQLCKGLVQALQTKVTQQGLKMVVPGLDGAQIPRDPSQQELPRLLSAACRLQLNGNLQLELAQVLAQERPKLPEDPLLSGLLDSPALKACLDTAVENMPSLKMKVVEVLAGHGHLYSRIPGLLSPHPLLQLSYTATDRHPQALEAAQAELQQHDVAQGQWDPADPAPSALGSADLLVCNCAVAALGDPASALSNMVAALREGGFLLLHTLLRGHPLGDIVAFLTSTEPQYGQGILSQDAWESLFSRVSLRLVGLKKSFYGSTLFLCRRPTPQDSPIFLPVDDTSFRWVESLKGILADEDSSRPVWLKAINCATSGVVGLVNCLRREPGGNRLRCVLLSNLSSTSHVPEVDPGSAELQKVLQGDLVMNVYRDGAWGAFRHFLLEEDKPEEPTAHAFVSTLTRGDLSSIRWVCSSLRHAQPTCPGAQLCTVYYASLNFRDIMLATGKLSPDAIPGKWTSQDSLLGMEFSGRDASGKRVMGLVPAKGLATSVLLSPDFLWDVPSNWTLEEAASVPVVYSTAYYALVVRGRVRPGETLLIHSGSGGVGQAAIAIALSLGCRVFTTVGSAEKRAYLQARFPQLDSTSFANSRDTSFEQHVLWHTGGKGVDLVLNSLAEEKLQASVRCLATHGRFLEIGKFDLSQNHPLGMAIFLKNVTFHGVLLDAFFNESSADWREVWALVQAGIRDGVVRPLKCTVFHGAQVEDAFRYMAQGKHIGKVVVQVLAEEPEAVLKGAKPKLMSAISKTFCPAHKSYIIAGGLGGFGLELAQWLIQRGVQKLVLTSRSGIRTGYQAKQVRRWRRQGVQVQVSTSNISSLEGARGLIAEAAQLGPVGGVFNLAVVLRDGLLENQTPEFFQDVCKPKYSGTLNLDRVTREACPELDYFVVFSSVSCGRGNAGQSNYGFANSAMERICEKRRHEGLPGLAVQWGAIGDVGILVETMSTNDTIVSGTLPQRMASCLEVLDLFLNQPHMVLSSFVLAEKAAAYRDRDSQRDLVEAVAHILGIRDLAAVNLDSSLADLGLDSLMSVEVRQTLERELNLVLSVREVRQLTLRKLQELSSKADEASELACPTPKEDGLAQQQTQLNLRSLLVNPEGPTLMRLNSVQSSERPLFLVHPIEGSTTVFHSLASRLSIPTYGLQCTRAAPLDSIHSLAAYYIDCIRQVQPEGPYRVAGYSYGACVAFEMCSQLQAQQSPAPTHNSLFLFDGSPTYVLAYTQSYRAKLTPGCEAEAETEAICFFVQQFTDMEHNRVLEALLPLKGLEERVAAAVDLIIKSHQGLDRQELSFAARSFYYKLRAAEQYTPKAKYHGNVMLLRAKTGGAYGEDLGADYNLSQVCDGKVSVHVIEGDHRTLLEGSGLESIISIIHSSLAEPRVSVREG
T8 sequence (P10145 whole entry): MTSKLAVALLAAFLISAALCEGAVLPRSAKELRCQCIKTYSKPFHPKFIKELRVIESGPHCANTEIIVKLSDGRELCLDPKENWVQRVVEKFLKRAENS
T9 sequence (Q38C91 whole entry): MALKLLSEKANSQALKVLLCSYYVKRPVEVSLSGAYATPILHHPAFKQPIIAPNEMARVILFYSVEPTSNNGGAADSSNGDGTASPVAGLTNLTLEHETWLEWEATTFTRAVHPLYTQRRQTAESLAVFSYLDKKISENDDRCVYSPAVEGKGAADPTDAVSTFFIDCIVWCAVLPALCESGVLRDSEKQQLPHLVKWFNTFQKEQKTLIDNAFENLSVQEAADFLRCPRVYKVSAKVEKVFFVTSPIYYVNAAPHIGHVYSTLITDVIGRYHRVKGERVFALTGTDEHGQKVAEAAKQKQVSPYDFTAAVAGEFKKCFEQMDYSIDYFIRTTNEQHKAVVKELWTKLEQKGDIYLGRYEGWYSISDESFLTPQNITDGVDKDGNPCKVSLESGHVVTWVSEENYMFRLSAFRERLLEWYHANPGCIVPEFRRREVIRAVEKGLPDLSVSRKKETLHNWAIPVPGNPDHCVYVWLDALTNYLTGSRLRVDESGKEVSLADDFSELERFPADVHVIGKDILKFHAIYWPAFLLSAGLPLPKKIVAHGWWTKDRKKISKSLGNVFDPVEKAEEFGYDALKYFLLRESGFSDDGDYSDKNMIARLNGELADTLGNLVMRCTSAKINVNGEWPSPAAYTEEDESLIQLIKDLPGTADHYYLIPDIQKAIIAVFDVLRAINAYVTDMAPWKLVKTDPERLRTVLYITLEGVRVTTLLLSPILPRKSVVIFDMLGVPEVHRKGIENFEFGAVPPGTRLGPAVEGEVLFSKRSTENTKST
T6 sequence (Q92731 whole entry): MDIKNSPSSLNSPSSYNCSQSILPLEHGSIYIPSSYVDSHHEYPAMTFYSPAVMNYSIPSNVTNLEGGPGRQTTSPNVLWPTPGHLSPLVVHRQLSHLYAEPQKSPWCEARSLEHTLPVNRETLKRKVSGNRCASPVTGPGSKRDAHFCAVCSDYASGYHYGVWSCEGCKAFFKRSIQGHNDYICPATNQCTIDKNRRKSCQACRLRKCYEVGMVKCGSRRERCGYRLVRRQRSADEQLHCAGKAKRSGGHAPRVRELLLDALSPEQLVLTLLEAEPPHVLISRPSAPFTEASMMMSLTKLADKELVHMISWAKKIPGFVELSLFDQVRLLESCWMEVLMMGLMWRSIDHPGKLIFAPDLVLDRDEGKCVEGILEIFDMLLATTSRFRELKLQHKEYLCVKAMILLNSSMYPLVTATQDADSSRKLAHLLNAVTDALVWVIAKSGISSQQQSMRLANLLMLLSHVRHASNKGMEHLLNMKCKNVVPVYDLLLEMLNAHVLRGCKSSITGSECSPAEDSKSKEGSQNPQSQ
T2 sequence (Q79MP6 whole entry): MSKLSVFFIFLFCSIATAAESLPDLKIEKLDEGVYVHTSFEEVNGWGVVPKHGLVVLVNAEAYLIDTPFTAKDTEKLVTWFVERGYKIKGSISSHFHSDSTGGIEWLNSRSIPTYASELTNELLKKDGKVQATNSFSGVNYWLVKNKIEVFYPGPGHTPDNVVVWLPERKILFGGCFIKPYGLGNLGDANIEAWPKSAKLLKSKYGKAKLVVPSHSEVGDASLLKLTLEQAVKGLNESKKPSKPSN
Beta Lactamase, sequence (Q932Y6 whole entry): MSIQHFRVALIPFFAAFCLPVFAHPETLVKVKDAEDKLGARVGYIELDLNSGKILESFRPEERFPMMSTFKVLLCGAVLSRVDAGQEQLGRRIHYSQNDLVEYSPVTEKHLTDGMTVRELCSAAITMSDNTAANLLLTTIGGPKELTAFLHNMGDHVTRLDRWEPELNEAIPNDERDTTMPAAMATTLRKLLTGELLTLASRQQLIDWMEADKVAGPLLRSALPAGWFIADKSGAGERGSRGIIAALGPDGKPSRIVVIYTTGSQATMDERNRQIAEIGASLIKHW

## COc1cccc(CNCc2ccccn2)c1OC
[1]
  EC50: 0.299 µM (active)
[2]
  EC50: 0.267 µM (active)
[3]
  AC50: 116 µM (active)

## NC(=O)SCC(=O)Nc1ccccc1C(=O)O
Beta-lactamase [4]
  IC50: > 59.6 µM (inactive)
Beta-lactamase [5]
  IC50: > 59.6 µM (inactive)
Beta-lactamase [6]
  IC50: 24.1 µM (inactive)

## CCOc1ccccc1NC(=O)c1nc(S(=O)(=O)Cc2cccc(C)c2)ncc1Cl
[7]
  EC50: > 120 µM (not active)
[8]
  EC50: 12 µM (active)
[9]
  EC50: 10.9 µM (active)
[10]
  EC50: 8.12 µM (active)
Streptokinase A
  EC50: 1.28 µM (active)
Streptococcus
  EC50: 15.7 µM (active)
INS1
  AC50: 5.15 µM (active)
[11]
  AC50: 0.324 µM (active)
[12]
  AC50: 18.8 µM (active)
[13]
  AC50: 6.38 µM (active)
Fatty acid synthase [14]
  IC50: 11.5 µM (active)
[15]
  EC50: 11.5 µM (active)
Fatty acid synthase [16]
  IC50: 3.06 µM (active)
Paired box protein Pax-8
  AC50: 7.71 µM (active)
[17]
  AC50: 24.4 µM (active)

## O=C(NCCCN1CCN(c2ccccc2F)CC1)C1CCC(=O)N1C1CCCCC1 (stereo unspecified)
Mu-type opioid receptor
  EC50: 92.5 µM (inactive)
[18]
  EC50: 76.1 µM (inactive)

## O=C1/C(=C\c2ccc(Cl)c(Cl)c2)CN(C(=O)CCN2CCOCC2)C/C1=C/c1ccc(Cl)c(Cl)c1
[19]
  AC50: 2.98 µM (active)
[20]
  IC50: 0.614 µM (active)
Beta Lactamase
  IC50: 31.4 µM (inactive)
[21]
  CC50: 16.9 µM (active)
[22]
  IC50: 121 µM (active)
Paired box protein Pax-8
  AC50: 2.65 µM (active)

## Cc1nc2cc(-c3ccsc3-n3c(C)ccc3C)nn2c(O)c1Cl
Estrogen receptor
  IC50: 27.5 µM (active)
Estrogen receptor beta [23]
  IC50: 7.66 µM (active)
Estrogen receptor beta [24]
  IC50: 1.53 µM (not active)
[25]
  IC50: > 66.6 µM (inactive)
[26]
  IC50: 10.7 µM (active)

## Cc1cc(N2CCOCC2)c2c(N)c(Br)cc(C)c2n1
HEK293
  AC50: 8.08 µM (active)
Interleukin-8 [27]
  IC50: > 79 µM (inactive)
Interleukin-8 [28]
  IC50: 8.34 µM (active)

## CC(C)OCCCNC(=O)c1ccncc1
[29]
  AC50: 37.6 µM (active)

## Cc1cccc(NC(=O)CCNC(=O)c2ccc(Br)cc2)c1
[30]
  IC50: 5.8 µM (active)
[31]
  IC50: 83.3 µM (inactive)
[32]
  IC50: 12.9 µM (inactive)
